Data: patent publication US20050064001A1, “Multi-layer adjuvants for controlled delivery of agro-materials into plant tissues” (priority 2001, published 2005)

Tests used:
[1] = tested on: Citrus Grandis isolated cuticles; assay: Penetration of phosphorous (32P) through isolated cuticles; assay type: in vitro ADME; conditions: 60% relative humidity, 25° C.
Protocol: Effect of MKP-Nutri-Vant^R I on the Percent of Penetration of Phosphorous (^32P) Through Citrus Grandis Isolated Cuticles
(§1) The experiment was carried out for three weeks in a controlled shaking chamber set at 60% relative humidity and 25° C. The values are calculated from the transformation formula −ln(1−Mt/Mo). Mt is the accumulation of radioactivity penetrated in each time period tested; Mo is the total radioactivity applied to the isolated cuticle, based on Schönherr and Riederer [Schonherr, J. and M. Riederer, Plant Cell Environ. […] The values are the means of at least 20 replicates ±S.E.

[2] = tested on: Citrus Grandis leaves; assay: Penetration of phosphorous (32P) into leaves; assay type: in vitro ADME; conditions: 60% relative humidity, 25° C.
Protocol: as §1
Effect of MKP-Nutri-Vant II on the Percent of Penetration of Phosphorous (^32P) into Citrus Grandis Leaves
The experiment was carried out for two weeks in a controlled shaking chamber set at 60% relative humidity and 25° C. All the details are similar to those in the previous table.

[3] = tested on: Citrus Lemon Urika chlorotic foliage; assay: Biological activity of iron sprayed on chlorotic foliage (leaf color, chlorophyll, iron content, leaf burns); assay type: in vivo; conditions: for Leaf Color: score 1 yellow, 2 light green, 3 vigorously green leaves
Description: Effect of Ferri-Vant (Multi-Layer Adjuvant Coated Fe2(SO4)3 on the Biological Activity of Iron Sprayed on Citrus Lemon Urika Chlorotic Foliage
The Ferri-Vant effect was compared with the untreated control, Fe2(SO4)3 sprayed alone and Fe2(SO4)3 treated with the surfactant Silwet^R L-77. Ten leaves from five trees sprayed for each treatment were sampled and scored for green color. The scoring was based as follows: 1—yellow leaves; 2—light green leaves; 3—vigorously green leaves. Chlorophyll level was determined spectrophotometrically as reported by Moran [Moran, R., Plant Physiol. 69:1376-1381 […]]. Iron content was obtained using the ICP system and leaf burns were visually detected.

Row | Iron Content at day4 ([3]; day 4, leaves, ICP system) [mg/g] | SMILES | % Penetration of 32P ([1]; 0 hours, mean of at least 20 replicates ±S.E.) [%] | % Penetration of 32P ([1]; 24 hours, mean ±S.E.) [%] | % Penetration of 32P ([1]; 48 hours, mean ±S.E.) [%] | % Penetration of 32P ([1]; 96 hours, mean ±S.E.) [%] | % Penetration of 32P ([1]; 168 hours, mean ±S.E.) [%] | % Penetration of 32P ([1]; 336 hours, mean ±S.E.) [%] | % Penetration of 32P ([1]; 504 hours, mean ±S.E.) [%] | % Penetration of 32P ([2]; 0 hours) [%] | % Penetration of 32P ([2]; 48 hours) [%] | % Penetration of 32P ([2]; 96 hours) [%] | % Penetration of 32P ([2]; 168 hours) [%] | % Penetration of 32P ([2]; 336 hours) [%] | Leaf Color ([3]; day 0) | Leaf Color ([3]; day 2) | Leaf Color ([3]; day 4) | Chlorophyll level at day 4, Chl. A ([3]; day 4, spectrophotometric) [mg/sq. cm leaf area] | Chlorophyll level at day 4, Chl. B ([3]; day 4, spectrophotometric) [mg/sq. cm leaf area] | Leaf Color ([3]; day 10)
1 | – | O=P([O-])(O)O.[K+] [MK^32P alone, Monopotassium phosphate] | 0 | 2.6 ± 0.8 | 3.4 ± 1.1 | 5.7 ± 1.4 | 6.3 ± 1.9 | 7.5 ± 1.6 | 7.9 ± 1.9 | 0 | 3.1 ± 0.8 | 4.7 ± 0.6 | 5.5 ± 0.6 | 6.4 ± 0.4 | – | – | – | – | – | –
2 | 0.61 | O=S(=O)([O-])[O-].O=S(=O)([O-])[O-].O=S(=O)([O-])[O-].[Fe+3].[Fe+3] [Fe2(SO4)3 alone, Fe2(SO4)3] | – | – | – | – | – | – | – | – | – | – | – | – | 1 | 1 | 1.3 ± 0.4 | 2.8 | 1.2 | 1.2 ± 0.4
